Experimental data as given in ChEMBL document CHEMBL1828542, “Synthesis and biological evaluation of substituted 4-arylthiazol-2-amino derivatives as potent growth inhibitors of replicating Mycobacterium tuberculosis H₃₇Rv” (Bioorg Med Chem Lett, 2011).
Values after ≈ are worked out from the molar mass of the structure shown.

What was measured:
[1] = system: Mycobacterium tuberculosis; assay: Antimicrobial activity against Mycobacterium tuberculosis H37Rv after 4 weeks by agar dilution assay; format: functional; settings: 672 h
[2] = system: Mycobacterium tuberculosis; assay: Antimicrobial activity against non-replicating Mycobacterium tuberculosis; format: functional
[3] = system: Mycobacterium tuberculosis; assay: Antimicrobial activity against replicating Mycobacterium tuberculosis; format: functional
[4] = system: Mycobacterium tuberculosis; assay: Ratio of NTZ MIC to compound MIC for Mycobacterium tuberculosis H37Rv; format: functional
[5] = Cytotoxicity against african green monkey Vero cells after 72 hrs by resazurin assay; format: cell-based; settings: chlorocebus sabaeus
[6] = Selectivity index, ratio of CC50 african green monkey Vero cells to MIC for Mycobacterium tuberculosis H37Rv; format: functional
[7] = system: Mycobacterium tuberculosis; assay: Antimicrobial activity against Mycobacterium tuberculosis H37Rv after 11 days using [14]C labeled palmitic acid as substrate by radiometric Bactec 460TB method; format: functional; settings: 264 h

With Clc1ccc(Cn2cc(/C=N/Nc3nc(-c4ccc(Cl)cc4Cl)cs3)c3ccccc32)c(Cl)c1 as the compound, how does the MIC [1] read?
Its MIC is 12.5 µg/mL (≈ 22.9 µM).

For CC(=O)Oc1ccccc1C(=O)Nc1ncc([N+](=O)[O-])s1 [NITAZOXANIDE], which MIC [2] is on record?
The MIC was 52.1 µM (≈ 16 µg/mL).

And the MIC [3]?
Its MIC is 52.1 µM (≈ 16 µg/mL).

For Fc1ccc(-c2csc(Nc3ccccc3C(F)(F)F)n2)cc1, which MIC [1] is on record?
Its MIC is > 12.5 µg/mL.

For COc1cccc2c1CCC/C2=N/Nc1nc(-c2cccc([N+](=O)[O-])c2)cs1, which MIC [1] is on record?
The MIC was 12.5 µg/mL (≈ 31.7 µM).

And the “fold change (FC)” value [4]?
Its value is 2.

What does the source list for COc1ccc(-c2csc(N/N=C3/CCCc4c(OC)cccc43)n2)cc1OC?
CC50 at 72 h [5]: > 244 µM; MIC [1]: 6.25 µg/mL (≈ 15.3 µM); Ratio [6]: >=39; MIC [7]: 6.25 µM (≈ 2.56 µg/mL); fold change (FC) [4]: 3

For Fc1ccc(Nc2nc(-c3ccc(F)cc3)cs2)cc1, which MIC [1] is on record?
The MIC was 1.8 µg/mL (≈ 6.24 µM).

What about the MIC [7] of the same compound?
Its MIC is 12.5 µM (≈ 3.6 µg/mL).

What about the “fold change (FC)” value [4] of the same compound?
The value was 9.

Which results are given for O=C(Nc1ncc([N+](=O)[O-])s1)c1ccccc1O [TIZOXANIDE]?
MIC [2]: 60.4 µM (≈ 16 µg/mL); MIC [3]: 60.4 µM (≈ 16 µg/mL)

With COc1cccc2c1CCC/C2=N/Nc1nc(-c2ccc(F)cc2)cs1 as the compound, how does the CC50 at 72 h [5] read?
Its CC50 at 72 h is > 300 µM.

And the MIC [1]?
The MIC was 6.25 µg/mL (≈ 17 µM).

And the Ratio [6]?
Its Ratio is “>=48”.

And the MIC [7]?
The MIC was 6.25 µM (≈ 2.3 µg/mL).

What about the “fold change (FC)” value [4] of the same compound?
The value was 3.

For COc1ccc(-c2csc(Nc3ccccc3C(F)(F)F)n2)cc1OC, which MIC [1] is on record?
The MIC was > 12.5 µg/mL.

Which MIC [1] does the source give for COc1ccc(OC)c(Nc2nc(-c3ccc(F)cc3)cs2)c1 here?
Its MIC is > 12.5 µg/mL.

Which MIC [7] does the source give for CN[C@@H]1[C@H](O[C@H]2[C@H](O[C@H]3[C@H](O)[C@@H](O)[C@H](N=C(N)N)[C@@H](O)[C@@H]3N=C(N)N)O[C@@H](C)[C@]2(O)C=O)O[C@@H](CO)[C@H](O)[C@H]1O [STREPTOMYCIN] here?
The MIC was 6 µM (≈ 3.49 µg/mL).

For COc1ccc(-c2csc(Nc3cc(OC)ccc3OC)n2)cc1, which MIC [1] is on record?
The MIC was > 12.5 µg/mL.

Which MIC [1] does the source give for NNC(=O)c1ccncc1 [ISONIAZID] here?
The MIC was < 1 µg/mL.

What does the source list for COc1cccc2c1CCC/C2=N/Nc1nc(-c2ccc(Cl)cc2Cl)cs1?
MIC [1]: 12.5 µg/mL (≈ 29.9 µM); fold change (FC) [4]: 2

With Fc1ccc(-c2csc(N/N=C/c3cn(Cc4ccc(Cl)cc4Cl)c4ccccc34)n2)cc1 as the compound, how does the MIC [1] read?
The MIC was > 12.5 µg/mL.

With COc1ccc(-c2csc(Nc3ccccc3C(F)(F)F)n2)cc1 as the compound, how does the MIC [1] read?
The MIC was > 12.5 µg/mL.

With O=[N+]([O-])c1cccc(-c2csc(Nc3ccccc3C(F)(F)F)n2)c1 as the compound, how does the MIC [1] read?
Its MIC is > 12.5 µg/mL.

For COc1ccc(-c2csc(N/N=C/c3cn(Cc4ccc(Cl)cc4Cl)c4ccccc34)n2)cc1OC, which MIC [1] is on record?
Its MIC is > 12.5 µg/mL.

Which MIC [1] does the source give for COc1ccc(OC)c(Nc2nc(-c3cccc([N+](=O)[O-])c3)cs2)c1 here?
Its MIC is > 12.5 µg/mL.
